Tests used:
Type in all cases: in vivo
[1] = test system: velvetleaf (Abutilon theophrasti, ABUTH); assay: Pre-emerge test, greenhouse herbicide activity screening; details: pre-emerge, 14 days after application, scale 0-100
Source text: (§1) A standard greenhouse herbicide activity screening system was used to evaluate the herbicidal efficacy and crop safety of these test compounds. Seven broadleaf weed species including redroot pigweed (Amaranthus retroflexus, AMARE, velvetleaf (Abutilon theophrasti, ABUTH), sicklepod (Cassia obtusifolia, CASOB), ivyleaf morningglory (Ipomoea hederacea, IPOHE), lambsquarters (Chenopodium album, CHEAL), common ragweed (Ambrosia artemisizfolia L., AMBEL), and cocklebur (Xanthium strumarium, XANST) were used as test species. Four grass weed species including green foxtail (Setaria viridis, SETVI), barnyardgrass (Echinochloa crus-galli, ECHCG), johnsongrass (Sorghum halepense, SORHA), and large crabgrass (Digitaria sanguinalis, DIGSA) were also used. In addition, three crop species, field corn (Zea mays L., var. Dekalb 535, CORN), soybean (Glycine max L., var. Pella 86, SOY), and is upland rice (Oryza sp., var. Tebonnet, RICE) were included.
(§2) All plants were grown in 10 cm square plastic pots which were filled with a sandy loam soil mix. For pre-emerge tests, seeds were planted one day prior to application of the test compounds. For post-emerge tests, seeds were planted 8-21 days prior to the test to allow emergence and good foliage development prior to application of the test substances. At the time of the post-emerge application, plants of all species were usually at the 2-3 leaf stage of development.
(§3) All test compounds Were dissolved in acetone and applied to the test units in a volume of 187 l /ha. Test materials were applied at rates ranging from 15 g ai/ha to 1000 g ai/ha using a track sprayer equipped with a TJ8001E even flow flat fan spray nozzle. Plants were arranged on a shelf so that the top of the canopy (post-emerge) or top of the soil surface (pre-emerge) was 40-45 cm below the nozzle. Pressurized air was used to force the test solution through the nozzle as it was mechanically advanced (via electrically driven chain drive) over the top of all test plants/pots. This application simulates a typical commercial field herbicide application.
(§4) In the post-emerge test, a commercial non-ionic surfactant was also included (0.25% v/v) to enhance wetting of the leaf surfaces of target plants. Immediately after application, test units of the pre-emerge applications were watered at the soil surface to incorporate the test materials. Subsequently, these test units were bottom-watered. Post-emerge test units were always bottom-watered.
(§5) At 14 days after application of the test materials, phytotoxicity ratings were recorded. A rating scale of 0-100 was used as previously described in Research Methods in Weed Science, 2nd edition, B. Truelove, Ed., Southern Weed Science Society, Auburn University, Auburn, Ala. 1977. Briefly, “0” corresponds to no damage and “100” corresponds to complete death of all plants in the test unit. This scale was used both to determine efficacy against weed species and damage to crop species. Herbicide activity data for various compounds of this invention, which are shown by compound No. in Tables 1-8, are shown in Tables 11 and 12.

[2] = test system: barnyardgrass (Echinochloa crus-galli, ECHCG); assay: as above; details: pre-emerge, 14 days after application, scale 0-100
Source text: as §1, §2, §3, §4, §5

[3] = test system: lambsquarters (Chenopodium album, CHEAL); assay: as above; details: pre-emerge, 14 days after application, scale 0-100
Source text: as §1, §2, §3, §4, §5

[4] = test system: green foxtail (Setaria viridis, SETVI); assay: as above; details: pre-emerge, 14 days after application, scale 0-100
Source text: as §1, §2, §3, §4, §5

[5] = test system: sicklepod (Cassia obtusifolia, CASOB); assay: as above; details: pre-emerge, 14 days after application, scale 0-100
Source text: as §1, §2, §3, §4, §5

[6] = test system: large crabgrass (Digitaria sanguinalis, DIGSA); assay: as above; details: pre-emerge, 14 days after application, scale 0-100
Source text: as §1, §2, §3, §4, §5

[7] = test system: ivyleaf morningglory (Ipomoea hederacea, IPOHE); assay: as above; details: pre-emerge, 14 days after application, scale 0-100
Source text: as §1, §2, §3, §4, §5

[8] = test system: field corn (Zea mays L., var. Dekalb 535, CORN); assay: Pre-emerge test, crop safety; details: pre-emerge, 14 days after application, scale 0-100
How it was run: (§6)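 Applied at 15–1000 g ai/ha from acetone in 187 l/ha spray volume. Post-emergence applications included 0.25% v/v non-ionic surfactant and reached plants sown 8–21 days before. Pre-emergence applications were incorporated by surface watering. Efficacy or crop damage was rated on a 0–100 scale after 14 days.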

[9] = test system: upland rice (Oryza sp., var. Tebonnet, RICE); assay: Pre-emerge test, crop safety; details: pre-emerge, 14 days after application, scale 0-100
How it was run: as §6

[10] = test system: redroot pigweed (Amaranthus retroflexus, AMARE); assay: Pre-emerge test, greenhouse herbicide activity screening; details: pre-emerge, 14 days after application, scale 0-100
How it was run: (§7)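 Herbicidal damage is scored 0 (none) to 100 (complete plant death) two weeks after a simulated field spray. Rates span 15–1000 g ai/ha, delivered in acetone at 187 l/ha. For post-emergence treatments, plants have 2–3 leaves and the spray carries 0.25% v/v non-ionic surfactant.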

[11] = test system: velvetleaf (Abutilon theophrasti, ABUTH); assay: Post-emerge test, greenhouse herbicide activity screening; details: post-emerge, 14 days after application, rating scale 0-100
Source text: as §1, §2, §3, §4, §5

[12] = test system: barnyardgrass (Echinochloa crus-galli, ECHCG); assay: as above; details: post-emerge, 14 days after application, rating scale 0-100
Source text: as §1, §2, §3, §4, §5

[13] = test system: lambsquarters (Chenopodium album, CHEAL); assay: as above; details: post-emerge, 14 days after application, rating scale 0-100
Source text: as §1, §2, §3, §4, §5

[14] = test system: green foxtail (Setaria viridis, SETVI); assay: as above; details: post-emerge, 14 days after application, rating scale 0-100
Source text: as §1, §2, §3, §4, §5

[15] = test system: sicklepod (Cassia obtusifolia, CASOB); assay: as above; details: post-emerge, 14 days after application, rating scale 0-100
Source text: as §1, §2, §3, §4, §5

[16] = test system: redroot pigweed (Amaranthus retroflexus, AMARE); assay: as above; details: post-emerge, 14 days after application, rating scale 0-100
Source text: as §1, §2, §3, §4, §5

[17] = test system: large crabgrass (Digitaria sanguinalis, DIGSA); assay: as above; details: post-emerge, 14 days after application, rating scale 0-100
Source text: as §1, §2, §3, §4, §5

[18] = test system: ivyleaf morningglory (Ipomoea hederacea, IPOHE); assay: as above; details: post-emerge, 14 days after application, rating scale 0-100
Source text: as §1, §2, §3, §4, §5

[19] = test system: field corn (Zea mays L., var. Dekalb 535, CORN); assay: Post-emerge test, crop safety; details: post-emerge, 14 days after application, rating scale 0-100
How it was run: as §7

[20] = test system: upland rice (Oryza sp., var. Tebonnet, RICE); assay: Post-emerge test, crop safety; details: post-emerge, 14 days after application, rating scale 0-100
How it was run: as §7

## COc1c(C#N)cc(F)c(-n2c(=O)cc(C(F)(F)F)n(C)c2=O)c1NC(=O)c1ccc2ccccc2c1 [2-181]
[1]; 63 g ai/ha
  phytotoxicity rating ABUTH: 100
[1]; 250 g ai/ha
  phytotoxicity rating ABUTH: 100
[2]; 63 g ai/ha
  phytotoxicity rating ECHCG: 40
[2]; 250 g ai/ha
  phytotoxicity rating ECHCG: 80
[3]; 63 g ai/ha
  phytotoxicity rating CHEAL: 100
[3]; 250 g ai/ha
  phytotoxicity rating CHEAL: 100
[4]; 63 g ai/ha
  phytotoxicity rating SETVI: 70
[4]; 250 g ai/ha
  phytotoxicity rating SETVI: 95
[5]; 63 g ai/ha
  phytotoxicity rating CASOB: 10
[5]; 250 g ai/ha
  phytotoxicity rating CASOB: 90
[6]; 63 g ai/ha
  phytotoxicity rating DIGSA: 60
[6]; 250 g ai/ha
  phytotoxicity rating DIGSA: 90
[7]; 63 g ai/ha
  phytotoxicity rating IPOHE: 30
[7]; 250 g ai/ha
  phytotoxicity rating IPOHE: 80
[8]; 63 g ai/ha
  phytotoxicity rating CORN (crop damage): 0
[8]; 250 g ai/ha
  phytotoxicity rating CORN (crop damage): 5
[9]; 63 g ai/ha
  phytotoxicity rating RICE (crop damage): 15
[9]; 250 g ai/ha
  phytotoxicity rating RICE (crop damage): 80
[10]; 63 g ai/ha
  phytotoxicity rating AMARE: 100
[10]; 250 g ai/ha
  phytotoxicity rating AMARE: 100
[11]; 63 g ai/ha
  ABUTH phytotoxicity rating: 100
[11]; 250 g ai/ha
  ABUTH phytotoxicity rating: 100
[12]; 63 g ai/ha
  ECHCG phytotoxicity rating: 40
[12]; 250 g ai/ha
  ECHCG phytotoxicity rating: 60
[13]; 63 g ai/ha
  CHEAL phytotoxicity rating: 100
[13]; 250 g ai/ha
  CHEAL phytotoxicity rating: 100
[14]; 63 g ai/ha
  SETVI phytotoxicity rating: 70
[14]; 250 g ai/ha
  SETVI phytotoxicity rating: 80
[15]; 63 g ai/ha
  CASOB phytotoxicity rating: 100
[15]; 250 g ai/ha
  CASOB phytotoxicity rating: 100
[16]; 63 g ai/ha
  AMARE phytotoxicity rating: 100
[16]; 250 g ai/ha
  AMARE phytotoxicity rating: 100
[17]; 63 g ai/ha
  DIGSA phytotoxicity rating: 30
[17]; 250 g ai/ha
  DIGSA phytotoxicity rating: 70
[18]; 63 g ai/ha
  IPOHE phytotoxicity rating: 100
[18]; 250 g ai/ha
  IPOHE phytotoxicity rating: 100
[19]; 63 g ai/ha
  CORN phytotoxicity rating (crop damage): 10
[19]; 250 g ai/ha
  CORN phytotoxicity rating (crop damage): 20
[20]; 63 g ai/ha
  RICE phytotoxicity rating (crop damage): 15
[20]; 250 g ai/ha
  RICE phytotoxicity rating (crop damage): 60

From patent US6355799B1, “Substituted benzene compounds, process for their preparation, and herbicidal and defoliant compositions containing them” (ISK Americas Incorporated, priority 1997, dated 2002)
